Assays:
[1] = test system: dayflower, VA; assay: Test F preemergence; type: in vivo, Commelina virginica
Source text: (§1) Seeds of plant species selected from corn (Zea mays), soybean (Glycine max), velvetleaf (Abutilon theophrasti), lambsquarters (Chenopodium album), wild poinsettia (Euphorbia heterophylla), pigweed, palmer (palmer pigweed, Amaranthus palmeri), common waterhemp (Amaranthus rudis), surinam grass (Brachiaria decumbens), large crabgrass (Digitaria sanguinalis), crabgrass, Brazil (Brazilian crabgrass, Digitaria horizontalis), fall panicum (Panicum dichotomiflorum), giant foxtail (Setaria faberii), green foxtail (Setaria viridis), goosegrass (Eleusine indica), johnsongrass (Sorghum halepense), common ragweed (Ambrosia elation), barnyardgrass (Echinochloa crus-galli), southern sandbur (Cenchrus echinatus), arrowleaf sida (Sida rhombifolia), Italian ryegrass (Lolium multiflorum), dayflower, VA (Virginia (VA) dayflower, Commelina virginica), field bindweed (Convolvulus arvensis), cocklebur (common cocklebur, Xanthium strumarium), morningglory (Ipomoea coccinea), nightshade (eastern black nightshade, Solanum ptycanthum), kochia (Kochia scoparia), yellow nutsedge (Cyperus esculentus), and hairy beggarticks (Bidens pilosa), were planted into a silt loam soil and treated preemergence with test chemicals formulated in a non-phytotoxic solvent mixture which included a surfactant.
(§2) At the same time, plants from these crop and weed species and also horseweed (Canada horseweed, Conyza canadensis), smartweed (ladysthumb smartweed, Polygonum persicaria), waterhemp_RES1, (ALS & Triazine resistant common waterhemp, Amaranthus rudis), and waterhemp_RES2, (ALS & HPPD resistant common waterhemp, Amaranthus rudis) were treated with postemergence applications of test chemicals formulated in the same manner. Plants ranged in height from 2 to 18 cm for postemergence treatments (1- to 4-leaf stage). Treated plants and controls were maintained in a greenhouse for 14 to 21 days, after which time all species were compared to controls and visually evaluated. Plant response ratings, summarized in Table F, are based on a scale of 0 to 100 where 0 is no effect and 100 is complete control. A dash (-) response means no test result.

[2] = test system: kochia; assay: Test F preemergence; type: in vivo, Kochia scoparia
Source text: as §1, §2

[3] = test system: common waterhemp; assay: Test F preemergence; type: in vivo, Amaranthus rudis
Source text: as §1, §2

[4] = test system: barnyardgrass; assay: Test F preemergence; type: in vivo, Echinochloa crus-galli
Source text: as §1, §2

[5] = test system: goosegrass; assay: Test F preemergence; type: in vivo, Eleusine indica
Source text: as §1, §2

[6] = test system: common ragweed; assay: Test F preemergence; type: in vivo, Ambrosia elation
Source text: as §1, §2

[7] = test system: common ragweed; assay: Test A preemergence; type: in vivo, Ambrosia elation
Method in brief: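 Pre- and postemergence greenhouse test; loam+sand; cpd in non-phytotox. solvent/surfactant; post at 1–2 leaf, 2–10 cm; visual score ~10 d, 0 = none, 100 = complete control.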

[8] = test system: goosegrass; assay: Test C postemergence; type: in vivo, Eleusine indica; conditions: for Goosegrass plant response rating: scale 0 to 100
Source text: (§3) Seeds of plant species selected from blackgrass (Alopecurus myosuroides), ryegrass, Italian (Italian ryegrass, Lolium multiflorum), wheat (winter wheat, Triticum aestivum), galium (catchweed bedstraw, Galium aparine), corn (Zea mays), crabgrass, large (large crabgrass, Digitaria sanguinalis), foxtail, giant (giant foxtail, Setaria faberii), johnsongrass (Sorghum halepense), lambsquarters (Chenopodium album), morningglory (Ipomoea coccinea), nutsedge, yellow (yellow nutsedge, Cyperus esculentus), pigweed (redroot pigweed, Amaranthus retroflexus), ragweed (common ragweed, Ambrosia elation), soybean (Glycine max), barnyardgrass (Echinochloa crus-galli), oilseed rape (Brassica napus), waterhemp (common waterhemp, Amaranthus rudis), oat, wild (wild oat, Avena fatua), kochia (Kochia scoparia), Surinam grass (Brachiaria decumbens), foxtail, green (green foxtail, Setaria viridis), goosegrass (Eleusine indica), bromegrass, downy (downy bromegrass, Bromus tectorum), nightshade (eastern black nightshade, Solanum ptycanthum), cocklebur (common cocklebur, Xanthium strumarium), cupgrass, woolly (woolly cupgrass, Eriochloa villosa), bermudagrass (Cynodon dactylon), sunflower, (common oilseed sunflower, Helianthus annuus), Russian thistle (Salsola kali), and velvetleaf (Abutilon theophrasti) were planted into a blend of loam soil and sand and treated preemergence with test chemicals formulated in a non-phytotoxic solvent mixture which included a surfactant.
(§4) At the same time, plants selected from these crop and weed species and also chickweed (common chickweed, Stellaria media), canarygrass (littleseed canarygrass, Phalaris minor), and deadnettle (henbit deadnettle, Lamium amplexicaule), were planted in pots containing Redi-Earth® planting medium (Scotts Company, 14111 Scottslawn Road, Marysville, Ohio 43041) comprising spaghnum peat moss, vermiculite, wetting agent and starter nutrients and treated with postemergence applications of test chemicals formulated in the same manner. Plants ranged in height from 2 to 18 cm (1- to 4-leaf stage) for postemergence treatments. Treated plants and controls were maintained in a greenhouse for 13 to 15 days, after which time all species were compared to controls and visually evaluated. Plant response ratings, summarized in Table C, are based on a scale of 0 to 100 where 0 is no effect and 100 is complete control. A dash (-) response means no test result.

[9] = test system: cupgrass, woolly; assay: Test C preemergence; type: in vivo, Eriochloa villosa
Source text: as §3, §4

[10] = Preemergence, 31 g ai/ha, scale 0 to 100
[11] = Preemergence, 62 g ai/ha, scale 0 to 100
[12] = Preemergence, 125 g ai/ha, scale 0 to 100
[13] = preemergence, 8 g ai/ha, scale 0 to 100, 100 is complete control
[14] = preemergence, 16 g ai/ha, scale 0 to 100, 100 is complete control
[15] = Preemergence, 250 g ai/ha, scale 0 to 100
[16] = Preemergence, 16 g ai/ha, scale 0 to 100
[17] = 125 g ai/ha, visual injury, 0 to 100 scale, approx. 10 days
[18] = 500 g ai/ha, visual injury after approx. 10 days, 0 to 100 scale (0 no effect, 100 complete control)
[19] = postemergence, 250 g ai/ha, scale 0 to 100 (0 no effect, 100 complete control)
[20] = postemergence, 125 g ai/ha, scale 0 to 100, 0 no effect, 100 complete control

## CCc1cc(-c2ccc(C(F)(F)F)cc2)nn1Cc1ccnc(C(F)(F)F)c1 [Compound 110]
[1]; [10]
  Plant response rating, Dayflower, VA: 5
[1]; [11]
  Plant response rating, Dayflower, VA: 10
[1]; [12]
  Plant response rating, Dayflower, VA: 65
[1]; [13]
  Plant response rating, Dayflower, VA: 0
[1]; [14]
  Plant response rating, Dayflower, VA: 0
[2]; [10]
  Plant response rating, Kochia: 70
[2]; [11]
  Plant response rating, Kochia: 80
[2]; [12]
  Plant response rating, Kochia: 90
[2]; [13]
  Plant response rating, Kochia: 20
[2]; [14]
  Plant response rating, Kochia: 25
[3]; [10]
  Plant response rating, Common Waterhemp: 85
[3]; [11]
  Plant response rating, Common Waterhemp: 100
[3]; [12]
  Plant response rating, Common Waterhemp: 100
[3]; [13]
  Plant response rating, Common Waterhemp: 65
[3]; [14]
  Plant response rating, Common Waterhemp: 65
[4]; [10]
  Plant response rating, Barnyardgrass: 0
[4]; [11]
  Plant response rating, Barnyardgrass: 10
[4]; [12]
  Plant response rating, Barnyardgrass: 35
[4]; [13]
  Plant response rating, Barnyardgrass: 0
[4]; [14]
  Plant response rating, Barnyardgrass: 0
[5]; [10]
  Plant response rating, Goosegrass: 35
[5]; [11]
  Plant response rating, Goosegrass: 60
[5]; [12]
  Plant response rating, Goosegrass: 95
[5]; [13]
  Plant response rating, Goosegrass: 0
[5]; [14]
  Plant response rating, Goosegrass: 15
[6]; [10]
  Plant response rating, Common Ragweed: 25
[6]; [11]
  Plant response rating, Common Ragweed: 80
[6]; [12]
  Plant response rating, Common Ragweed: 90
[6]; [13]
  Plant response rating, Common Ragweed: 0
[6]; [14]
  Plant response rating, Common Ragweed: 0

## CCCc1cc(C(=O)NC(C)C)nn1Cc1cc(C(F)(F)F)nn1C [Compound 201]
[1]; [11]
  Plant response rating, Dayflower, VA: 0
[1]; [12]
  Plant response rating, Dayflower, VA: 35
[1]; [15]
  Plant response rating, Dayflower, VA: 65
[1]; [14]
  Plant response rating, Dayflower, VA: 0
[2]; [11]
  Plant response rating, Kochia: 90
[2]; [12]
  Plant response rating, Kochia: 100
[2]; [15]
  Plant response rating, Kochia: 100
[2]; [14]
  Plant response rating, Kochia: 0
[3]; [16]
  Plant response rating, Common Waterhemp: 0
[3]; [11]
  Plant response rating, Common Waterhemp: 75
[3]; [12]
  Plant response rating, Common Waterhemp: 80
[3]; [15]
  Plant response rating, Common Waterhemp: 100
[3]; [14]
  Plant response rating, Common Waterhemp: 5
[4]; [16]
  Plant response rating, Barnyardgrass: 0
[4]; [11]
  Plant response rating, Barnyardgrass: 10
[4]; [12]
  Plant response rating, Barnyardgrass: 85
[4]; [15]
  Plant response rating, Barnyardgrass: 95
[4]; [14]
  Plant response rating, Barnyardgrass: 0
[5]; [11]
  Plant response rating, Goosegrass: 50
[5]; [12]
  Plant response rating, Goosegrass: 95
[5]; [15]
  Plant response rating, Goosegrass: 95
[5]; [14]
  Plant response rating, Goosegrass: 0
[6]; [16]
  Plant response rating, Common Ragweed: 0
[6]; [11]
  Plant response rating, Common Ragweed: 0
[6]; [12]
  Plant response rating, Common Ragweed: 35
[6]; [15]
  Plant response rating, Common Ragweed: 65
[6]; [14]
  Plant response rating, Common Ragweed: 0

## CCc1cc(C(=O)NOC(C)C)nn1Cc1ccnc(OC(F)F)c1 [Compound 126]
[7]; [17]
  Common Ragweed plant response rating: 90
[7]; [18]
  Common Ragweed plant response rating: 100

## CCc1cc(C(=O)NCC(F)(F)F)nn1Cc1ccnc(Br)c1 [Compound 224]
[1]; [11]
  Plant response rating, Dayflower, VA: 0
[1]; [12]
  Plant response rating, Dayflower, VA: 40
[1]; [15]
  Plant response rating, Dayflower, VA: 85
[2]; [11]
  Plant response rating, Kochia: 90
[2]; [12]
  Plant response rating, Kochia: 100
[2]; [15]
  Plant response rating, Kochia: 100
[3]; [11]
  Plant response rating, Common Waterhemp: 100
[3]; [12]
  Plant response rating, Common Waterhemp: 100
[3]; [15]
  Plant response rating, Common Waterhemp: 100
[4]; [11]
  Plant response rating, Barnyardgrass: 0
[4]; [12]
  Plant response rating, Barnyardgrass: 40
[4]; [15]
  Plant response rating, Barnyardgrass: 70
[5]; [11]
  Plant response rating, Goosegrass: 35
[5]; [12]
  Plant response rating, Goosegrass: 60
[5]; [15]
  Plant response rating, Goosegrass: 95
[6]; [11]
  Plant response rating, Common Ragweed: 0
[6]; [12]
  Plant response rating, Common Ragweed: 0
[6]; [15]
  Plant response rating, Common Ragweed: 60

## CCOc1cc(C(=O)NCC(F)(F)F)nn1Cc1ccnc(OC(F)F)c1 [Compound 128]
[7]; [17]
  Common Ragweed plant response rating: 70
[7]; [18]
  Common Ragweed plant response rating: 90

## CCONC(=O)c1cc(CC)n(Cc2cccc(OC(F)(F)F)c2)n1 [Compound 72]
[8]; Postemergence, 31 g ai/ha
  Goosegrass plant response rating: 0
[8]; postemergence, 62 g ai/ha
  Goosegrass plant response rating: 0
[8]; [19]
  Plant response rating, Goosegrass: 5
[8]; [20]
  Plant response rating, Goosegrass: 0
[9]; Preemergence, 250 g ai/ha
  Plant response rating (scale of 0 to 100), Cupgrass, Woolly: 65
[9]; preemergence, 31 g ai/ha, scale 0 to 100 (0 no effect, 100 complete control), 13 to 15 days
  Cupgrass, Woolly plant response rating: 10
[9]; preemergence, 62 g ai/ha, 13 to 15 days, scale 0 to 100, 0 = no effect, 100 = complete control
  Plant response rating, Cupgrass, Woolly: 45
[9]; preemergence, 125 g ai/ha, scale 0 to 100, 0 is no effect, 100 is complete control
  Cupgrass, Woolly plant response rating: 45

## CCc1cc(C(=O)NCC(F)(F)F)nn1Cc1cccc(OC(F)(F)F)c1 [Compound 20]
[8]; Postemergence, 31 g ai/ha
  Goosegrass plant response rating: 0
[8]; [19]
  Plant response rating, Goosegrass: 15
[8]; postemergence, 62 g ai/ha, scale 0 to 100, 0 no effect, 100 complete control
  Plant response rating, Goosegrass: 5
[8]; [20]
  Plant response rating, Goosegrass: 5
